One test has as its target CDK4/cyclin D1 (Homo sapiens (Human), UniProt P11802). The test can be described thus: CDK4/cyclin D1 enzymatic activity assay (TR-FRET, phosphorylation of pRb at Ser780). It counts as biochemical. Conditions: 0.3 nM CDK4/cyclin D1, 150 nM biotin-pRb (773-924), 3 μM ATP, 60 min at 22° C.; read-out: Biochemical CDK4 enzyme IC50. An outline of the steps: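 Phosphorylation at pRb Ser780, detected by TR-FRET, gave IC50s and kinetics. Enzyme: baculovirus/Sf21-expressed human CDK4/cyclin D1. ATP at 3 μM initiated the reaction; EDTA (pH 8.0) stopped it after 60 min at 22° C.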

The test system of test [1] is phosphorylation of pRb at the Ser780 site in JeKo-1 mantle cell lymphoma cells. The test can be described thus: CDK4 cellular assay: ELISA of pRb phosphorylation at Ser780 in JeKo-1 cells. Format: cell-based. As to conditions: Homo sapiens. (In an ELISA, binding on a coated surface is turned into a signal by an enzyme label.)
In another test the target is CDK1/cyclin B (Homo sapiens (Human), UniProt P06493). The test can be described thus: CDK1/cyclin B enzymatic activity assay (IMAP-FP). As to conditions: […] CDK1/cyclin B, 100 nM Tamra Histone-H1 peptide, 20 μM ATP, 120 min at room temperature; read-out: Biochemical CDK1 enzyme IC50. Format: biochemical. The source says:
CDK1/Cyclin B Enzymatic Activity Assay
A 384-well microtiter IMAP-FP™ (Molecular Devices Trade Mark Technology) endpoint assay was used for CDK1/cyclin B kinase activity measurements. The same assay was used for IC50 determination of small molecule inhibitors.

Setting [2] is: JeKo-1 cells, p-pRb % inhibition adjusted with total pRb levels, read-out: Normalized cellular ppRb inhibition IC50.
Setting [3] is: JeKo-1 cells, p-pRb Ser780 ELISA, non-normalized, read-out: Cellular ppRb inhibition IC50.
Where [4] appears, read: JeKo-1, JeKo-1 cells, p-pRb % inhibition adjusted with total pRb levels, read-out: Normalized cellular ppRb inhibition IC50.
The mark [5] stands for this setting: JeKo-1, JeKo-1 cells, p-pRb Ser780 ELISA, non-normalized, read-out: Cellular ppRb inhibition IC50.

Like-named read-outs stand apart in the source and are kept apart here.

CDK4/cyclin D1, sequence (P11802 whole entry): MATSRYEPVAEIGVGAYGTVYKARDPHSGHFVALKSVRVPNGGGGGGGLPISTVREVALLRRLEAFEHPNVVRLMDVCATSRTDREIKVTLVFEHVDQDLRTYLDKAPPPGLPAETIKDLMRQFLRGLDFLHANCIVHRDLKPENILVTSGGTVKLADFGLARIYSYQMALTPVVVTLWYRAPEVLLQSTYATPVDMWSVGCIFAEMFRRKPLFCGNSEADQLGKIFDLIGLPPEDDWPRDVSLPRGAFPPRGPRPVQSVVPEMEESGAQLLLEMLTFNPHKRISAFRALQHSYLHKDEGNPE
CDK4/cyclin D1, sequence (P24385 whole entry partner): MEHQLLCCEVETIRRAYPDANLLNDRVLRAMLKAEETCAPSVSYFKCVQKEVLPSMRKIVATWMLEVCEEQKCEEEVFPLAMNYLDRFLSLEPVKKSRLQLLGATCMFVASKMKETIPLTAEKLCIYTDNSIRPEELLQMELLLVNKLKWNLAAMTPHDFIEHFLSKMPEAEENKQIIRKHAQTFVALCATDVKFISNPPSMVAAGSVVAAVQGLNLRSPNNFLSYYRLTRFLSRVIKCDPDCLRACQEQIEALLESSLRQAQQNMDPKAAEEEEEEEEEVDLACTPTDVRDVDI
CDK1/cyclin B, sequence (P06493 whole entry, species assumed): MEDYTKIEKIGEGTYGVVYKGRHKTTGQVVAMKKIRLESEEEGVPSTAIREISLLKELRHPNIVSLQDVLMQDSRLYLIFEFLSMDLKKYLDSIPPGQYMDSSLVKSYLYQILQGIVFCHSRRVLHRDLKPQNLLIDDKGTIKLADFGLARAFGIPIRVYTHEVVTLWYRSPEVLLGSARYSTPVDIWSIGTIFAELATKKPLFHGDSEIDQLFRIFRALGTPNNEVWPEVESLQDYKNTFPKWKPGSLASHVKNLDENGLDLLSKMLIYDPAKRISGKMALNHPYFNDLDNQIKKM
CDK1/cyclin B, sequence (P14635 whole entry partner, species assumed): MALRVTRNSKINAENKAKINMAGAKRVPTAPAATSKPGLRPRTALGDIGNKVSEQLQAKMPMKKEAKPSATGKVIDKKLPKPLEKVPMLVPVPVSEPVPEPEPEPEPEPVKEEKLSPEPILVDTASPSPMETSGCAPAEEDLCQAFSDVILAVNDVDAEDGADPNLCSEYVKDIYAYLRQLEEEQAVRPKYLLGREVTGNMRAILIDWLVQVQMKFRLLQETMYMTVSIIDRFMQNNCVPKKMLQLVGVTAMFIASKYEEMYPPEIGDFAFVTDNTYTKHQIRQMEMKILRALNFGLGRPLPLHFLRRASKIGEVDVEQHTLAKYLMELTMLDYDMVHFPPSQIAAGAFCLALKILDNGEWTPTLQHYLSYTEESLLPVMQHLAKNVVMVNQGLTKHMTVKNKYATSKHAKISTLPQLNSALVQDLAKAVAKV

Usually IC50 stands for the concentration at which inhibition is half-maximal. As to `CN(C)C(=O)c1cc2cnc(Nc3ccc(N4CC5CC4CN5)cn3)nc2n1C1CCCC1` (centres unmarked) [Example 111, 7-Cyclopentyl-2-[5-(2,5-diaza-bicyclo[2.2.1]hept-2-yl)-pyridin-2-ylamino]-7H-pyrrolo[2,3-d]pyrimidine-6-carboxylic acid dimethylamide], the IC50 on CDK4/cyclin D1 worked out at 41 nM; in test [1] (setting [2]) it was 452 nM; in test [1] (setting [3]), 371 nM; at CDK1/cyclin B, 9170 nM.
For `CN(C)C(=O)c1cc2cnc(Nc3ccc(N4C[C@H]5CNC[C@H]5C4=O)cn3)nc2n1C1CCCCCC1` [Example 83, 7-cycloheptyl-N,N-dimethyl-2-(5-((3aR,6aS)-1-oxohexahydropyrrolo[3,4-c]pyrrol-2(1H)-yl)pyridin-2-ylamino)-7H-pyrrolo[2,3-d]pyrimidine-6-carboxamide], in that order: 3 nM, 9 nM, 5 nM and 5320 nM.
As to `CC(=O)N1C2CCC1CN(C(=O)c1ccc(Nc3ncc4cc(C(=O)N(C)C)n(C5CCCCCC5)c4n3)nc1)C2` [Example 8, 2-(5-(8-acetyl-3,8-diazabicyclo[3.2.1]octane-3-carbonyl)pyridin-2-ylamino)-7-cycloheptyl-N,N-dimethyl-7H-pyrrolo[2,3-d]pyrimidine-6-carboxamide], the IC50 on CDK4/cyclin D1 was 39 nM; in test [1] (setting [2]), 259 nM; in test [1] (setting [3]) it was 72 nM; on CDK1/cyclin B, greater than 15000 nM.
`CN1CC2(C)CN(C(=O)c3ccc(Nc4ncc5cc(C(=O)N(C)C)n(C6CCCC6)c5n4)nc3)CC(C)(C1)C2O` (centres unmarked) [Example 39, 7-Cyclopentyl-2-(5-(9-hydroxy-1,5,7-trimethyl-3,7-diazabicyclo[3.3.1]nonane-3-carbonyl)pyridin-2-ylamino)-N,N-dimethyl-7H-pyrrolo[2,3-d]pyrimidine-6-carboxamide]: the IC50 on CDK4/cyclin D1 is 77 nM; in test [1] (setting [2]), 136 nM; in test [1] (setting [3]), 79 nM; on CDK1/cyclin B, greater than 15000 nM.
For the molecule `CC(=O)N1[C@@H]2CC[C@H]1CN(c1ccc(Nc3ncc4cc(C(=O)N(C)C)n(C5CCCC5)c4n3)nc1)C(=O)C2` [Example 139, 2-(5-((1S,6R)-9-acetyl-4-oxo-3,9-diazabicyclo[4.2.1]nonan-3-yl)pyridin-2-ylamino)-7-cyclopentyl-N,N-dimethyl-7H-pyrrolo[2,3-d]pyrimidine-6-carboxamide], the IC50 is 114 nM at CDK4/cyclin D1, 638 nM in test [1] (setting [4]), 605 nM in test [1] (setting [5]) and greater than 15000 nM on CDK1/cyclin B.
Regarding `CN(C)C(=O)c1cc2cnc(Nc3ccc(C(=O)N4CC5CCC(C4)N5C)cn3)nc2n1C1CCCC1` [Example 45, 7-cyclopentyl-2-[5-(8-methyl-3,8-diaza-bicyclo[3.2.1]octane-3-carbonyl)-pyridin-2-ylamino]-7H-pyrrolo[2,3-d]pyrimidine-6-carboxylic acid dimethylamide], the IC50 at CDK4/cyclin D1 is 14 to 24 nM; in test [1] (setting [4]), 64 nM; in test [1] (setting [5]), 64 nM; at CDK1/cyclin B, 12800 nM.
With `CN(C)C(=O)c1cc2cnc(Nc3ccc(N4C[C@@H]5CC[C@H](CC4=O)N5S(C)(=O)=O)cn3)nc2n1C1CCCC1` [Example 137, 7-cyclopentyl-N,N-dimethyl-2-(5-((1S,6R)-9-(methylsulfonyl)-4-oxo-3,9-diazabicyclo[4.2.1]nonan-3-yl)pyridin-2-ylamino)-7H-pyrrolo[2,3-d]pyrimidine-6-carboxamide], the IC50 at CDK4/cyclin D1 is 62 nM; in test [1] (setting [2]), 150 nM; in test [1] (setting [3]) it was 155 nM; at CDK1/cyclin B it was greater than 15000 nM.
As to `CN(C)C(=O)c1cc2cnc(Nc3ccc(N4CC5(CC6CCC(C5)N6)OC4=O)cn3)nc2n1C1CCCC1` [Example 101, 7-cyclopentyl-N,N-dimethyl-2-(5-((1R,3r, 5S)-2′-oxo-8-azaspiro[bicyclo[3.2.1]octane-3,5′-oxazolidine]-3′-yl)pyridin-2-ylamino)-7H-pyrrolo[2,3-d]pyrimidine-6-carboxamide], the IC50 was 20 nM at CDK4/cyclin D1, 110 nM in test [1] (setting [2]), 58 nM in test [1] (setting [3]) and greater than 15000 nM on CDK1/cyclin B.

(Values after patent publication US8957074B2 (Novartis AG, priority 2010, dated 2015).)
